From ChEMBL document CHEMBL1201862, “PubChem BioAssay data set” (2004)
Calls of active or inactive are those of the source.

Assays:
Aspartyl aminopeptidase = Aspartyl aminopeptidase (Plasmodium falciparum 3D7, UniProt Q8I2J3); assay: Counterscreen for inhibitors of M1 and M17 aminopeptidases: QFRET-based biochemical high throughput dose response assay for inhibitors of the Plasmodium falciparum M18 Aspartyl Aminopeptidase (PFM18AAP). [Related PubChem assays: 1619 (Screening assay (M17LAP inhibitors).), 1445 (Screening assay (M1AAP inhibitors).)]
Aminopeptidase N = biological target: T1, Aminopeptidase N (Plasmodium falciparum FcB1/Columbia, UniProt O96935); assay: malaria alanyl aminopeptidase activity blockers – biochemical, fluorogenic H-Leu-NHMec substrate, 1536-well (AID 1445); design: species or system Plasmodium falciparum 3D7, 3D7
T1 sequence (O96935 whole entry): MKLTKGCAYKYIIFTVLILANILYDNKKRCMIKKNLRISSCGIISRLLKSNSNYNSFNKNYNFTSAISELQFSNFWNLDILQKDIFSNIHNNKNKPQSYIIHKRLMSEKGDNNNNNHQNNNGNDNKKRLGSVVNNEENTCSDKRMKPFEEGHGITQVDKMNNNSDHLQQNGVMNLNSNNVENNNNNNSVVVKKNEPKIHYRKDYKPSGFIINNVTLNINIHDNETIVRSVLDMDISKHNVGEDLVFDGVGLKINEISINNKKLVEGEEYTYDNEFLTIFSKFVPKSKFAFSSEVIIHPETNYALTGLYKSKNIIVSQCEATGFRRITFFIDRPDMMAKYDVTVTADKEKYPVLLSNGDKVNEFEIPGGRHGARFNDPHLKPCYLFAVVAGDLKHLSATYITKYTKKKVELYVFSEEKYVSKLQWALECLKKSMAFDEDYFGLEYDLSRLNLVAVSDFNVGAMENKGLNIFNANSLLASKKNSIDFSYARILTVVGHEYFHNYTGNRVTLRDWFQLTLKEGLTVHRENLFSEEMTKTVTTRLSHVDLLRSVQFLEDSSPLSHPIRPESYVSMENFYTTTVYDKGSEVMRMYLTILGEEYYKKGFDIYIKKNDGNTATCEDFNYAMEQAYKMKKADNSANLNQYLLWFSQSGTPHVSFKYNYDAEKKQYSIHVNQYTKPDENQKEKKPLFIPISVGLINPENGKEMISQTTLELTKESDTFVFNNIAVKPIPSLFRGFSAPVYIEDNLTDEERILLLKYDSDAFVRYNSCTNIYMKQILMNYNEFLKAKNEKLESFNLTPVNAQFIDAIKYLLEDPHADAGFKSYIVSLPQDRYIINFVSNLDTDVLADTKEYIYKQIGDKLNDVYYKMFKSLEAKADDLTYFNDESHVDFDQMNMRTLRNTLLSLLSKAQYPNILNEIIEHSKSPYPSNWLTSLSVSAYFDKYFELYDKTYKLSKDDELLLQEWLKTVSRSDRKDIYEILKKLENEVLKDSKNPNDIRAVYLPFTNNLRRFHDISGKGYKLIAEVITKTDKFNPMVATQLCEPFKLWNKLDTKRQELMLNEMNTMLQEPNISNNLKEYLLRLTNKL

Procathepsin L = Procathepsin L (Homo sapiens, UniProt P07711); assay: CTSL1 protease inhibition – biochemical, QFRET, 1536-well, counter-screen for M1/M17 aminopeptidase inhibitor project, dose response (AID 2214)
Leucine aminopeptidase = biological target: T2, Leucine aminopeptidase (Plasmodium falciparum 3D7, UniProt Q8IL11); assay: P. falciparum M17LAP inhibitors, primary screen, biochemical, fluorogenic H-Leu-NHMec substrate, 1536-well (AID 1619); assay type: functional
T2 sequence (Q8IL11 whole entry): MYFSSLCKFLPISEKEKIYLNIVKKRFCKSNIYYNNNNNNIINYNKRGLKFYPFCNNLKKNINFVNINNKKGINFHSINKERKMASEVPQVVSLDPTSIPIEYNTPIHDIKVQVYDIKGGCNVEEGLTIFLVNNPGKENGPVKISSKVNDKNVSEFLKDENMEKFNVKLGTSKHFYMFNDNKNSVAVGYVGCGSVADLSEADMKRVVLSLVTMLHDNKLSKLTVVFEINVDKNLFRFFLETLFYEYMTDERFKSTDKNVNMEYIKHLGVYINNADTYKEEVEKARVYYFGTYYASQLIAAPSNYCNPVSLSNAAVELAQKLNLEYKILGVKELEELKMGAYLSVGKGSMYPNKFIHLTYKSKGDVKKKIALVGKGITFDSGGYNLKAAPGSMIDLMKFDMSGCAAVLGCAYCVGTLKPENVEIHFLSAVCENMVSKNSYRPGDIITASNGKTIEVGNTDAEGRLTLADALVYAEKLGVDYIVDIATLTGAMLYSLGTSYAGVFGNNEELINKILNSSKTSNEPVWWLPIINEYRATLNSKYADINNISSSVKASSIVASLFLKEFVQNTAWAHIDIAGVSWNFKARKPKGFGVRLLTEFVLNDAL

[1] = A Cell Based Secondary Assay To Explore Cytotoxicity of Compounds that Sensitize Mycobacterium Tuberculosis to Beta-Lactam Antibiotics.; assay type: functional
[2] = biological target: Acyl-homoserine lactone acylase PvdQ (Pseudomonas aeruginosa (strain LESB58), UniProt Q9I194); assay: PvdQ acylase enzyme activity blockers – biochemical, fluorescence, plate reader and imaging, cherry-picks, dose response (AID 493231)
[3] = biological target: T3, Eukaryotic translation initiation factor 2-alpha kinase 3 (Homo sapiens, UniProt Q9NZJ5); assay: Dose response cell-based high-throughput screening assay to measure PERK inhibition. [Related pubchem assays: 1416 ]; assay type: functional
T3 sequence (Q9NZJ5 whole entry): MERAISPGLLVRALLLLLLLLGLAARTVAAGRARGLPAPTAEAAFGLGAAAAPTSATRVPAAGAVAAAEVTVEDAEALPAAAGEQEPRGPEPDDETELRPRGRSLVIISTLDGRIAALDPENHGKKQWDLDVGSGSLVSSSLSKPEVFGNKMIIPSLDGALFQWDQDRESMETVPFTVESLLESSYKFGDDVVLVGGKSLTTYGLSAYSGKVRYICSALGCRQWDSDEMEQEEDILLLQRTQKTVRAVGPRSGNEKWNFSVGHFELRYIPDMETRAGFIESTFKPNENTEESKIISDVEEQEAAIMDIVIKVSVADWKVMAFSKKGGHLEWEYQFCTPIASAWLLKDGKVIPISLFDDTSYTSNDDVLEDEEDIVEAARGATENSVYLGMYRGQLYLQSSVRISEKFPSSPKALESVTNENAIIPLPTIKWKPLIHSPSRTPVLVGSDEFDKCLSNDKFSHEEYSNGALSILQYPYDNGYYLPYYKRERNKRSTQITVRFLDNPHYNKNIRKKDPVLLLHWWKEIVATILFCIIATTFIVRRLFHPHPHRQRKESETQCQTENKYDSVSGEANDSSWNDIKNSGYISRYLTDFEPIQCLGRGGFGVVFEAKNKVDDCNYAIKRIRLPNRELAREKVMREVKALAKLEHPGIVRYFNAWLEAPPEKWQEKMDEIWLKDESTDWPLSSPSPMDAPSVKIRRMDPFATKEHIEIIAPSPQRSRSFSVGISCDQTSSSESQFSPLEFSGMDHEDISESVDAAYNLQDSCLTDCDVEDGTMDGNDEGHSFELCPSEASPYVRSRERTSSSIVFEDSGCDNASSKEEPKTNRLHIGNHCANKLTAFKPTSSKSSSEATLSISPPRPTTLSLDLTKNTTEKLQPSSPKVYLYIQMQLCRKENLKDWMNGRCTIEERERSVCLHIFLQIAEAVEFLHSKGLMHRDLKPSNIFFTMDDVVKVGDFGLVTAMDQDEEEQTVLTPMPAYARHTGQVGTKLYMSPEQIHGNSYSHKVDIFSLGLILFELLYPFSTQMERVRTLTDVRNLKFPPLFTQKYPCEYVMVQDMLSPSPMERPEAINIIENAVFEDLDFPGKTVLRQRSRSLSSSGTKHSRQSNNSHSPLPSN

[4] = biological target: T3, Eukaryotic translation initiation factor 2-alpha kinase 3; assay: Counterscreen assay for PERK inhibitors: Dose response cell-based high throughput screening assay to measure inhibition of PERK at 6 hours. [Related pubchem assays: 1522, 1416 ]; assay type: functional

Procathepsin L, sequence (P07711 whole entry): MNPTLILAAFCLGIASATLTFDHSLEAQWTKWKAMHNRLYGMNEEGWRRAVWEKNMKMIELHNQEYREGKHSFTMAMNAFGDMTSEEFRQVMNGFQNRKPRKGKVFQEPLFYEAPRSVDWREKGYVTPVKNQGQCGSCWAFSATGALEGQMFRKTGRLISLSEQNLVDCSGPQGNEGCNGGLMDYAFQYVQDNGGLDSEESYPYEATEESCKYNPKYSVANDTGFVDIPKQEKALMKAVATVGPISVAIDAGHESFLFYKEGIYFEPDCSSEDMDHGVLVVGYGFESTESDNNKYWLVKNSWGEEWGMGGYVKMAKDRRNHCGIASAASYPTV
Acyl-homoserine lactone acylase PvdQ, sequence (Q9I194 24-193 limits assumed): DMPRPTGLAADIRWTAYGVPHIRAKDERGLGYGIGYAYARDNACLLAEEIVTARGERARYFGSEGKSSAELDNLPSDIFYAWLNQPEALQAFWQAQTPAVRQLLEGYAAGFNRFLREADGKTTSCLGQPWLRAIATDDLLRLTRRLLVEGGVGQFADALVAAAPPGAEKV
Acyl-homoserine lactone acylase PvdQ, sequence (Q9I194 217-762 limits assumed): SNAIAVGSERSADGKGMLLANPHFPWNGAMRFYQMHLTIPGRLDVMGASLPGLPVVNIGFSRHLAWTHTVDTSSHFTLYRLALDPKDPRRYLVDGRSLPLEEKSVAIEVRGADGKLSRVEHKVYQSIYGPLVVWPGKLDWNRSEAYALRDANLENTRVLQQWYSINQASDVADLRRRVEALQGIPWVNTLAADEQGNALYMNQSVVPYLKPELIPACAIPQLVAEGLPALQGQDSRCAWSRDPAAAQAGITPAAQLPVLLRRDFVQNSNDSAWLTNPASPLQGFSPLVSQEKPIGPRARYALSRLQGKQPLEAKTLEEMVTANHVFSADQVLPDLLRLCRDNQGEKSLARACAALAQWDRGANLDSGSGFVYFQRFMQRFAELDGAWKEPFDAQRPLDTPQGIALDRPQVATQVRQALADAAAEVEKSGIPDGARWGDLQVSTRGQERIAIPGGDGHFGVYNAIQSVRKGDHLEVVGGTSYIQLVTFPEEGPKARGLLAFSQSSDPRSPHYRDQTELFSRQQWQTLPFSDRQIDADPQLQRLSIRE
Aspartyl aminopeptidase, sequence (Q8I2J3 whole entry): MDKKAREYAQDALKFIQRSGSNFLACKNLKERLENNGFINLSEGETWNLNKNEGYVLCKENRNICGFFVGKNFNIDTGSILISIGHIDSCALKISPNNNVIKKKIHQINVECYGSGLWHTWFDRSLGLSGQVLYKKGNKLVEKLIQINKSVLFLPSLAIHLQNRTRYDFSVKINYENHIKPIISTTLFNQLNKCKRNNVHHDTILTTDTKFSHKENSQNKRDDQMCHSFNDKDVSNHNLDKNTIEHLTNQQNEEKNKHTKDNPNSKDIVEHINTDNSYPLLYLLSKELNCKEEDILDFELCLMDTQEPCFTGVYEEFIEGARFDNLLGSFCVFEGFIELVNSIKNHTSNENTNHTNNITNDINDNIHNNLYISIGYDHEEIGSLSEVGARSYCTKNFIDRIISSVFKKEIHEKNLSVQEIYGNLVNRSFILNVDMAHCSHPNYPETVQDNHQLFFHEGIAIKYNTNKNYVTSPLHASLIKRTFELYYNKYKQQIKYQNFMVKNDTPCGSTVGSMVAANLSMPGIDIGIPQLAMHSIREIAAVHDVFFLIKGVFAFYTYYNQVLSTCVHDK

Compound	IC50 (Aspartyl aminopeptidase)	IC50 (Procathepsin L)	AC50 [2]	also measured
CCCS(=O)(=O)N1CCC(C(=O)NCc2ccc3c(c2)OCO3)CC1	> 73.5 µM (not active)	> 59.6 µM (not active)	–	IC50 (Aminopeptidase N): 13.1 µM (active)
O=C(CSc1nc2c(c(=O)[nH]1)CN(Cc1ccc(F)cc1)CC2)Nc1ccc(F)cc1	> 73.5 µM (not active)	> 59.6 µM (not active)	–	IC50 (Leucine aminopeptidase): 7.8 µM (active)
O=c1c2cc(Cl)ccc2[nH]c(=S)n1Cc1cccs1	–	–	–	CC50 [1]: > 40 µM (active)
CCOC(=O)c1cnc(-c2ccccc2)nc1N	–	–	11.6 µM (active)	–
O=C1c2ccncc2C(=O)N1c1cccc(Cl)c1	–	–	–	EC50 [3]: > 55.7 µM (not active); EC50 [4]: > 55.7 µM (not active)
N#CCn1c(C2CCCCC2)nc2ccccc2c1=O	–	–	13.1 µM (active)	–
